Reference: ChEMBL document CHEMBL1133842, “Identification of a series of PPAR gamma/delta dual agonists via solid-phase parallel synthesis” (Bioorg Med Chem Lett, 2001)

What was measured:
Rattus norvegicus [1] = assay: In vivo percent reduction in plasma glucose in ZDF rats at 30 mg/kg bid dose after 7 day administration; format: functional
[2] = Mean plasma concentration at a oral dose of 3 mg/kg in rat at 1.0 hr; format: ADME, organism-based; parameters: dose 3 mg/kg, route oral
[3] = target: T1, Peroxisome proliferator-activated receptor delta (Homo sapiens, UniProt Q03181); assay: Agonistic transcriptional activity in CV-1 cells expressing Gal4-PPAR delta chimera; format: functional, cell-based
T1 sequence (Q03181 whole entry): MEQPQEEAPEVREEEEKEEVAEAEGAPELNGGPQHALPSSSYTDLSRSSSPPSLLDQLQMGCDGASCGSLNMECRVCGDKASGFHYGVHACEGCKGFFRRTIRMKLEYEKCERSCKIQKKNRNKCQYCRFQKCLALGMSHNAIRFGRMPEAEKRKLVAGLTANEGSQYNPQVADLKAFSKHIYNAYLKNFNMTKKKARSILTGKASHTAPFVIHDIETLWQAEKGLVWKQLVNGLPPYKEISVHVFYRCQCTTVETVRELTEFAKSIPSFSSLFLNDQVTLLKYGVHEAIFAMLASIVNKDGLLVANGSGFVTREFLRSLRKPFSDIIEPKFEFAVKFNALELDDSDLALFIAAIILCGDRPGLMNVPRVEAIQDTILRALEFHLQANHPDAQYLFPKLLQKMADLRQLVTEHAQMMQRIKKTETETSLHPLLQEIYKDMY

Rattus norvegicus [4] = assay: In vivo percent reduction in serum triglycerides in ZDF rats at 30 mg/kg bid dose after 7 day administration; format: functional
Rattus norvegicus [5] = assay: In vivo increase in HDL-c in ZDF rats at 30 mg/kg bid dose after 7 day administration; format: functional
[6] = target: T2, Peroxisome proliferator-activated receptor delta (Mus musculus, UniProt P35396); assay: Agonist activity against PPAR delta; format: functional
T2 sequence (P35396 whole entry): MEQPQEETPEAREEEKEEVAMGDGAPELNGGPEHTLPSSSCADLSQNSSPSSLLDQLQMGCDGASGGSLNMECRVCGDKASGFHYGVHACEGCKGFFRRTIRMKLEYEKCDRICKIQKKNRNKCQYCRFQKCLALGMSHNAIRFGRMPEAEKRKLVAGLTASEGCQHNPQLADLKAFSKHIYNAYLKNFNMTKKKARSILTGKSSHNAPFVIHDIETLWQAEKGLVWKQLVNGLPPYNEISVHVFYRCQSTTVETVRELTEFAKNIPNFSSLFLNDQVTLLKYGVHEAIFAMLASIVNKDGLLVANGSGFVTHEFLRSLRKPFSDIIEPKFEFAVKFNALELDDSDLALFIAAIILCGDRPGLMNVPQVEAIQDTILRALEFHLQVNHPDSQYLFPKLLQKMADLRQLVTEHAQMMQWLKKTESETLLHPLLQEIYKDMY

[7] = Mean plasma concentration at a oral dose of 3 mg/kg in rat at 0.5 hr; format: ADME, organism-based; parameters: dose 3 mg/kg, route oral
[8] = target: T3, Peroxisome proliferator-activated receptor alpha (Homo sapiens, UniProt Q07869); assay: Agonistic transcriptional activity in CV-1 cells expressing Gal4-PPAR alpha chimera; format: functional, cell-based
T3 sequence (Q07869 whole entry): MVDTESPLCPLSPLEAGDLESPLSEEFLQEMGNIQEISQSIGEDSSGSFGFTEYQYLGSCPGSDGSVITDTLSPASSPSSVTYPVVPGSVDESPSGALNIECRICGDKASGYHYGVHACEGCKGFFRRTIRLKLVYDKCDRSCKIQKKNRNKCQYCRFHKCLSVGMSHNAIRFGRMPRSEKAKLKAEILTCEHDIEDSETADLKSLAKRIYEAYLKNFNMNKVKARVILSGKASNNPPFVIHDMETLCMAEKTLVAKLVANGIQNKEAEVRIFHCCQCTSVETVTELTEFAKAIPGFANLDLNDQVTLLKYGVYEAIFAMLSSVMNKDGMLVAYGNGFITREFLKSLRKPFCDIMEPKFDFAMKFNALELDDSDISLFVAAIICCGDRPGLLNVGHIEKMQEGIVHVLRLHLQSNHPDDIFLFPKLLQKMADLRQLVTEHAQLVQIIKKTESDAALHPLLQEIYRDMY

[9] = target: T4, Peroxisome proliferator-activated receptor gamma (Mus musculus, UniProt P37238); assay: Agonist activity against PPAR gamma; format: functional
T4 sequence (P37238 whole entry): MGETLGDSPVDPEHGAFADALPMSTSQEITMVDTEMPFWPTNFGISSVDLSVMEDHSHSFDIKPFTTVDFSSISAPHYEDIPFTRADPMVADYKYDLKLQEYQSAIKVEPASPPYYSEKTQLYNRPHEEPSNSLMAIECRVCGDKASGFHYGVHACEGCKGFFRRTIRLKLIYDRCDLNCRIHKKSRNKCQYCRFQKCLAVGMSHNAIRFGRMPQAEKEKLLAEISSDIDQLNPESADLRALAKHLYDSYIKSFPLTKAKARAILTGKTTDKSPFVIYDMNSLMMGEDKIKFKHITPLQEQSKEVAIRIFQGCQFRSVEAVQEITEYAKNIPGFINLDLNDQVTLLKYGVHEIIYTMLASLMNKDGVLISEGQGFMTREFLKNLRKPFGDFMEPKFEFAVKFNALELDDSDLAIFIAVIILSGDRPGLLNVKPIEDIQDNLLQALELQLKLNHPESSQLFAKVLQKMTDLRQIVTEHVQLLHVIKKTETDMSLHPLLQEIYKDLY

[10] = target: T5, Peroxisome proliferator-activated receptor alpha (Mus musculus, UniProt P23204); assay: Agonist activity against PPAR alpha; format: functional
T5 sequence (P23204 whole entry): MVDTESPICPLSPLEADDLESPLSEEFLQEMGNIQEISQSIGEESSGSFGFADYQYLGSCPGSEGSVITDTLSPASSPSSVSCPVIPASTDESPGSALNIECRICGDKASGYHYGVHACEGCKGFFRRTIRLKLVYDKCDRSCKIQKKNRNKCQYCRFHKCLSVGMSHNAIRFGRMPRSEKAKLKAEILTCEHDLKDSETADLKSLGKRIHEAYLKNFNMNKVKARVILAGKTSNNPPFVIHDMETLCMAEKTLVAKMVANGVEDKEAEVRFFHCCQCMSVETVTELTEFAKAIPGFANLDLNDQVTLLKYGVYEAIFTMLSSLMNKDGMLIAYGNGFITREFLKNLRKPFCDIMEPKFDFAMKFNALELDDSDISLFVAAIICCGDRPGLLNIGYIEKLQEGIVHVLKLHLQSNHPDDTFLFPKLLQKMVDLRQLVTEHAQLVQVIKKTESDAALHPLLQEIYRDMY

[11] = target: T6, Peroxisome proliferator-activated receptor gamma (Homo sapiens, UniProt P37231); assay: Agonistic transcriptional activity in CV-1 cells expressing Gal4-PPAR gamma chimera; format: functional, cell-based
T6 sequence (P37231 whole entry): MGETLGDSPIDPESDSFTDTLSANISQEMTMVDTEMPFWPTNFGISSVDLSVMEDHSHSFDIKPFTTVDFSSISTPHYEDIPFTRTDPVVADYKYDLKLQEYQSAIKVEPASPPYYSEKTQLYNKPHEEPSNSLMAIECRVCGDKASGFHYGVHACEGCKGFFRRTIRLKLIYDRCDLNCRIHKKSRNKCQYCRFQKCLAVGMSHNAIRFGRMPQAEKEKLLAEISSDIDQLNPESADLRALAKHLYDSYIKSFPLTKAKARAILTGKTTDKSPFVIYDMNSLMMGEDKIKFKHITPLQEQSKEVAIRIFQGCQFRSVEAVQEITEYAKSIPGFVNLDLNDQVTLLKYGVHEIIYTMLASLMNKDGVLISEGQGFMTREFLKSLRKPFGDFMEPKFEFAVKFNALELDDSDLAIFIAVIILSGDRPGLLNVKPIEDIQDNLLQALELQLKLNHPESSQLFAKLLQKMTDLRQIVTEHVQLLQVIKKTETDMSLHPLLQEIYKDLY

[12] = Mean plasma concentration at a oral dose of 3 mg/kg in rat at 2.0 hr; format: ADME, organism-based; parameters: dose 3 mg/kg, route oral

concentration at 1 h [2] [ng/mL]	EC50 [3] [nM]	EC50 [6] [nM]	concentration at 0.5 h [7] [ng/mL]	EC50 [8] [nM]	EC50 [9] [nM]	EC50 [10] [nM]	EC50 [11] [nM]	concentration at 2 h [12] [ng/mL]	Structure (SMILES)	Reduction (Rattus norvegicus [1]) [%]	Reduction (Rattus norvegicus [4]) [%]	Reduction (Rattus norvegicus [5]) [%]
722	19	19	373	620	28	> 1000	4	524	CC(C)(Oc1cccc(CCCN(Cc2ccc(C(F)(F)F)cc2C(F)(F)F)C(=O)Cc2ccc(C(F)(F)F)cc2)c1)C(=O)O	47	51	24
–	93	–	–	710	–	–	30	–	CC(C)(Oc1cccc(CCCN(Cc2ccc(C(F)(F)F)cc2C(F)(F)F)C(=O)COc2ccc(Cl)c(Cl)c2)c1)C(=O)O	–	–	–
–	160	–	–	230	–	–	0.5	–	CCOC(=O)c1ccc(NC(=O)N(CCCc2cccc(OC(C)(C)C(=O)O)c2)Cc2ccc(C(F)(F)F)cc2C(F)(F)F)cc1	–	–	–
